Measurements reported in ChEMBL document CHEMBL5154856, “Targeting the tumor microenvironment by an enzyme-responsive prodrug of tubulin destabilizer for triple-negative breast cancer therapy with high safety” (Eur J Med Chem, 2022).
Calls of active or inactive are those of the source. No cut-off for these calls is given here.

Assays:
[1] = Toxicity in nude mouse xenografted with human MDA-MB-231 cells assessed as pathological changes in liver at 20 to 40 mg/kg, iv administered every 2 days for 14 days by H and E staining based assay; type: organism-based; settings: in vivo, 336 h, dose 20-40 mg/kg, time 14 day
[2] = Toxicity in nude mouse assessed as effect on alanine aminotransferase level in serum at 40 mg/kg, iv administered qd for 3 days (reference value: 308 U/L); type: organism-based; settings: in vivo, 72 h, time 3 day
[3] = Metabolic stability in rat liver microsomes assessed as parent compound remaining at 10 mM measured up to 60 mins in presence of NADPH by LC-MS/MS analysis; type: ADME, Microsome; settings: read-out: Stability
[4] = Toxicity in nude mouse assessed as effect on eosinophil level at 40 mg/kg, iv administered qd for 3 days (reference value: 6 %); type: organism-based; settings: in vivo, 72 h, time 3 day
[5] = Toxicity in nude mouse assessed as effect on monocytes level at 40 mg/kg, iv administered qd for 3 days (reference value: 37.10 %); type: organism-based; settings: in vivo, 72 h, time 3 day
[6] = tested on: SK-OV-3; experiment: Antiproliferative activity against human SK-OV-3 cells assessed as inhibition of cell growth incubated for 48 hrs in absence of beta-glucuronidase by MTT assay; type: functional, cell-based; settings: SK-OV-3, 48 h
[7] = tested on: MDA-MB-231; experiment: Antitumor activity against mouse xenografted with human MDA-MB-231 cells assessed as increase in tumor necrosis area at 20 to 40 mg/kg, iv administered every 2 days for 14 days by H and E staining based assay; type: functional, organism-based; settings: dose 20-40 mg/kg, time 14.0 day
[8] = Toxicity in nude mouse assessed as ratio of effect on albumin level to effect on globulin level in serum at 40 mg/kg, iv administered qd for 3 days (reference value: 1.94); type: organism-based; settings: in vivo, 72 h, time 3 day
[9] = Toxicity in nude mouse assessed as effect on albumin level in serum at 40 mg/kg, iv administered qd for 3 days (reference value: 31.2 g/L); type: organism-based; settings: in vivo, 72 h, time 3 day
[10] = Cardiotoxicity in nude mouse assessed as prolonged QT intervals at 20 to 40 mg/kg, iv administered once daily for 3 days by ECG analysis; type: toxicity, organism-based; settings: in vivo, 72 h, dose 20-40 mg/kg, time 3 day
[11] = tested on: HeLa; experiment: Antiproliferative activity against human HeLa cells assessed as inhibition of cell growth incubated for 48 hrs in absence of beta-glucuronidase by MTT assay; type: functional, cell-based
[12] = Toxicity in nude mouse assessed as effect on platelet count at 40 mg/kg, iv administered qd for 3 days (reference value: 21 10^9/L); type: organism-based; settings: in vivo, 72 h, time 3 day
[13] = Toxicity in nude mouse assessed as effect on alkaline phosphatase level in serum at 40 mg/kg, iv administered qd for 3 days (reference value: 66 U/L); type: organism-based; settings: in vivo, 72 h, time 3 day

COc1ccc([C@H]2[C@H](CO)C(=O)N2c2cc(OC)c(OC)c(OC)c2)cc1OCc1ccc(O[C@@H]2O[C@H](C(=O)O)[C@@H](O)[C@H](O)[C@H]2O)cc1
Activity [1]: Non-Toxic
Activity [2]: 316 U/L
remaining at 1 h [3]: 74.9%
Activity [4]: 6.2%
Activity [5]: 21.9%
IC50 [6]: > 50 µM
Activity [7]: Active
Ratio [8]: 1.84
Activity [9]: 29.5 g/L
Activity [10]: Non-Toxic
IC50 [11]: > 50 µM
Activity [12]: 43 10^9/L
Activity [13]: 56 U/L
